# Laboratory results published in patent US8907106B2, “Process for the resolution of enantiomers by preferential evaporative crystallization” (Universite de Rouen, priority 2009, dated 2014).
# Experiment: Solubility of the racemic mixture in methanol
# Assay type: physicochemical
smiles,measurement,setting,value
O=C([O-])C(O)c1ccccc1Cl.[Na+] (racemic) [Sodium 2-chloromandelate],difference in solubility of the racemic mixture between 40° C. and 20° C.,"40° C. vs 20° C., in absolute value, solvent of Example 2 is methanol",0.85%
same,Solubility of the racemic mixture in the methanol at reflux,methanol at reflux,23%
